From paper PMC3631453 (ACS chemical biology, 2013)
Marks after values point to notes of the source that are not given here.

Legend:
ERβ = ERβ (Homo sapiens, UniProt Q92731); assay: ER-regulated reporter gene; conditions: U2OS, read-out: Hormonal activity (U2OS Cells) ERβ IA (intrinsic activity)
full-length human ERβ = full-length human ERβ (Homo sapiens, UniProt Q92731); conditions: relative to E2 = 100%; cited from earlier work
U2OS cells = assay: Cell density of transfected U2OS cells; format: cell-based
MCF-7 = assay: Growth inhibition of ER-positive MCF-7 cells, 96h; format: cell-based; conditions: read-out: Growth inhibition IC50 after 96h MCF7, OHT ligands
MDA-MB-231 = assay: Growth inhibition of ER-negative MDA-MB-231 cells, 96h; format: cell-based; conditions: read-out: Growth inhibition IC50 after 96h MDA-MB-231, OHT ligands

Chain of ERβ (Q92731 whole entry): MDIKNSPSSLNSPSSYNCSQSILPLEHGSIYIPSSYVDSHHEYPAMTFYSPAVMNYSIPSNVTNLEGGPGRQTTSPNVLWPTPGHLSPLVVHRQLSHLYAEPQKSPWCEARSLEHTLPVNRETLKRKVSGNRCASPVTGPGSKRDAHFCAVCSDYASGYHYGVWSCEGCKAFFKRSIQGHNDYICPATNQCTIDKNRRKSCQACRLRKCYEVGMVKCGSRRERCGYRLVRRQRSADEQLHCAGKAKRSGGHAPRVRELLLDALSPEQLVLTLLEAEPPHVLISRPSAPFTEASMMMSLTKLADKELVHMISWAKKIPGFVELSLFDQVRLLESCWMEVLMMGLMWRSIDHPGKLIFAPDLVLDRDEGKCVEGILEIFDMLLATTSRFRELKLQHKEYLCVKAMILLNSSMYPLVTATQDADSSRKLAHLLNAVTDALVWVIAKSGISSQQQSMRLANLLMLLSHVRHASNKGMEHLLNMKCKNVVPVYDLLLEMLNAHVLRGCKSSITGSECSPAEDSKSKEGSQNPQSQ
Chain of full-length human ERβ (Q92731 whole entry): as above

Row | Compound | Emax (ERβ) [%] | RBA for ERβ (full-length human ERβ) | Hormonal activity (U2OS Cells) ERα CD (cell density) (U2OS cells; 10nM) [%] | Hormonal activity (U2OS Cells) ERβ CD (cell density) (U2OS cells; 10nM) [%] | Hormonal activity (U2OS Cells) ERα CD (cell density) (U2OS cells; 1μM) [%] | Hormonal activity (U2OS Cells) ERβ CD (cell density) (U2OS cells; 1μM) [%] | IC50 (MCF-7) [nM] | IC50 (MDA-MB-231) [nM]
1 | CC/C(=C(/CC)c1ccc(O)cc1)c1ccc(O)cc1 [DES, diethylstilbestrol] | 111 | 278 ± 54 ^f % | 103 | 90 | – | – | – | –
2 | CC/C(=C(\c1ccc(O)cc1)c1ccc(OCCN(C)C)cc1)c1ccccc1 [OHT, hydroxytamoxifen] | – | – | – | – | 110 | 92 | 150 | 4590
